Results as given in US11319315B2, “Cyclohexyl acid triazole azoles as LPA antagonists” (BRISTOL-MYERS SQUIBB COMPANY, priority 2017, dated 2022).

biological target: T1, human LPA1 (Homo sapiens, UniProt Q92633); assay: LPA1 functional antagonist assay (LPA-induced calcium flux in CHO cells overexpressing human LPA1); type: cell-based; settings: inhibition of calcium flux induced by 10 nM LPA, CHO cells overexpressing human LPA1; read-out: hLPA1 IC50
T1 construct: expressed in transfected cells; host or cells: Chinese hamster ovary (CHO) cells
How it was run: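 CHO cells overexpressing human LPA1, dye-loaded 30 min at 37 °C, then given compound (0.08 nM–5 μM final, 0.5% DMSO) in HBSS/20 mM HEPES/0.1% fatty-acid-free BSA for 20 min at room temperature before 10 nM LPA. IC50 as 50% inhibition of LPA-evoked calcium flux, 4-parameter logistic fit.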

T1 sequence (Q92633 whole entry): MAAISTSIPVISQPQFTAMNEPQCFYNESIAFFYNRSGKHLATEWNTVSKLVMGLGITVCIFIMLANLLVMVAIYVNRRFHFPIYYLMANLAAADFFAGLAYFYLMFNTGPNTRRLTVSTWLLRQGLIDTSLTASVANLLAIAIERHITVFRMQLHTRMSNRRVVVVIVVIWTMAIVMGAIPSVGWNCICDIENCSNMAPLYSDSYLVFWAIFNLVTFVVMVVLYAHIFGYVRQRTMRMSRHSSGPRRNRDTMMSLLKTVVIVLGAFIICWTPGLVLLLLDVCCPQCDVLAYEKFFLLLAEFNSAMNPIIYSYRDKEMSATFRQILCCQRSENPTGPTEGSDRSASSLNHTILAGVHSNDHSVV

Cc1nc(-c2nnn(C)c2Cn2nnnc2-c2ccccc2)ccc1O[C@H]1CCC[C@H](C(=O)O)C1 [Example 108] and Cc1nc(-c2nnn(C)c2Cn2nnnc2Cc2ccccc2)ccc1O[C@H]1CCC[C@H](C(=O)O)C1 [Example 110] are within 1.5-fold of each other in IC50: 0.239 µM for the first, 0.207 µM for the second.

Going from Cc1nc(-c2nnn(C)c2Cn2nnc(Cc3ccccc3)n2)ccc1O[C@H]1CCC[C@H](C(=O)O)C1 [Example 109] to CCCc1nnn(Cc2c(-c3ccc(O[C@H]4CCC[C@H](C(=O)O)C4)c(C)n3)nnn2C)n1 [Example 113], the IC50 rises from 0.014 µM to 0.03 µM (2.1-fold). The first is the more potent here.

First: CCCCc1nnn(Cc2c(-c3ccc(O[C@H]4CCC[C@H](C(=O)O)C4)c(C)n3)nnn2C)n1 [Example 111]
Second: CCCCc1nnnn1Cc1c(-c2ccc(O[C@H]3CCC[C@H](C(=O)O)C3)c(C)n2)nnn1C [Example 112]
The IC50 of the first is 5.2-fold lower: 0.034 µM for the first, 0.176 µM for the second. The first is the more potent here.

CCCc1nnnn1Cc1c(-c2ccc(O[C@H]3CCC[C@H](C(=O)O)C3)c(C)n2)nnn1C [Example 114] and Cc1nc(-c2nnn(C)c2COc2nnnn2CC(C)C)ccc1O[C@H]1CCC[C@H](C(=O)O)C1 [Example 144] are within 1.5-fold of each other in IC50: 0.125 µM for the first, 0.094 µM for the second.

Cc1nc(-c2nnn(C)c2COc2ncn(-c3ccccc3)n2)ccc1O[C@H]1CCC[C@H](C(=O)O)C1 [Example 115, (1S,3S)-3-((2-methyl-6-(1-methyl-5-(((1-phenyl-1H-1,2,4-triazol-3-yl)oxy)methyl)-1H-1,2,3-triazol-4-yl)pyridin-3-yl)oxy)cyclohexane-1-carboxylic acid] and Cc1nc(-c2nnn(C)c2COc2ncn(CC(C)C)n2)ccc1O[C@H]1CCC[C@H](C(=O)O)C1 [Example 135, (1 S,3 S)-3-((6-(5-(((1-Isobutyl-1H-1,2,4-triazol-3-yl)oxy)methyl)-1-methyl-1H-1,2,3-triazol-4-yl)-2-methylpyridin-3-yl)oxy)cyclohexane-1-carboxylic acid] are within 1.5-fold of each other in IC50: 0.047 µM for the first, 0.032 µM for the second.

Compared with Cc1nc(-c2nnn(C)c2COc2nc(C3CC3)ns2)ccc1O[C@H]1CCC[C@H](C(=O)O)C1 [Example 116, (1S,3S)-3-((6-(5-(((3-cyclopropyl-1,2,4-thiadiazol-5-yl)oxy)methyl)-1-methyl-1H-1,2,3-triazol-4-yl)-2-methylpyridin-3-yl)oxy)cyclohexane-1-carboxylic acid], Cc1nc(-c2nnn(C)c2COc2nc(C(C)C)ns2)ccc1O[C@H]1CCC[C@H](C(=O)O)C1 [Example 128] is 4.1-fold lower in IC50: 0.405 µM for the first, 0.098 µM for the second.

Going from Cc1nc(-c2nnn(C)c2COc2noc(CC3CC3)n2)ccc1O[C@H]1CCC[C@H](C(=O)O)C1 [Example 117, (1S,3S)-3-((6-(5-(((5-(cyclopropylmethyl)-1,2,4-oxadiazol-3-yl)oxy)methyl)-1-methyl-1H-1,2,3-triazol-4-yl)-2-methylpyridin-3-yl)oxy)cyclohexane-1-carboxylic acid] to CCc1nc(OCc2c(-c3ccc(O[C@H]4CCC[C@H](C(=O)O)C4)c(C)n3)nnn2C)no1 [Example 129], the IC50 rises from 0.011 µM to 0.041 µM (3.7-fold).

First: CCc1nsc(NCc2c(-c3ccc(O[C@H]4CCC[C@H](C(=O)O)C4)c(C)n3)nnn2C)n1 [Example 118]
Second: Cc1nc(-c2nnn(C)c2CNc2nc(C(F)(F)F)ns2)ccc1O[C@H]1CCC[C@H](C(=O)O)C1 [Example 119]
The IC50 of the first is 15-fold higher: 0.919 µM for the first, 0.06 µM for the second.

First: Cc1nc(-c2nnn(C)c2CNc2nsc(C(C)C)n2)ccc1O[C@H]1CCC[C@H](C(=O)O)C1 [Example 120]
Second: Cc1nc(-c2nnn(C)c2CNc2nnc(C(C)C)s2)ccc1O[C@H]1CCC[C@H](C(=O)O)C1 [Example 122]
The IC50 of the first is 22-fold lower: 0.025 µM for the first, 0.555 µM for the second.

Going from Cc1nc(-c2nnn(C)c2CNc2nsc(Nc3ccccc3)n2)ccc1O[C@H]1CCC[C@H](C(=O)O)C1 [Example 121] to Cc1nc(-c2nnn(C)c2CNc2noc(C(C)C)n2)ccc1O[C@H]1CCC[C@H](C(=O)O)C1 [Example 174], the IC50 falls from 0.47 µM to 0.223 µM (2.1-fold). The second is the more potent here.

Going from Cc1nc(-c2nnn(C)c2CNc2cc(C3CC3)nn2C)ccc1O[C@H]1CCC[C@H](C(=O)O)C1 [Example 123] to Cc1nc(-c2nnn(C)c2CNc2cc(C(C)C)nn2C)ccc1O[C@H]1CCC[C@H](C(=O)O)C1 [Example 125], the IC50 falls from 1.29 µM to 0.627 µM (2.1-fold).

Going from Cc1nc(-c2nnn(C)c2CNc2cnn(C(C)C)n2)ccc1O[C@H]1CCC[C@H](C(=O)O)C1 [Example 124] to Cc1nc(-c2nnn(C)c2CNc2ncn(C(C)C)n2)ccc1O[C@H]1CCC[C@H](C(=O)O)C1 [Example 126], the IC50 rises from 0.337 µM to 1.49 µM (4.4-fold). The first is the more potent here.

First: CCCc1nsc(OCc2c(-c3ccc(O[C@H]4CCC[C@H](C(=O)O)C4)c(C)n3)nnn2C)n1 [Example 127]
Second: CCCc1nnc(OCc2c(-c3ccc(O[C@H]4CCC[C@H](C(=O)O)C4)c(C)n3)nnn2C)s1 [Example 132]
The IC50 of the first is 4.4-fold higher: 0.425 µM for the first, 0.097 µM for the second. The second is the more potent here.

Cc1nc(-c2nnn(C)c2COc2noc(C(C)C)n2)ccc1O[C@H]1CCC[C@H](C(=O)O)C1 [Example 130] and CCCc1nc(OCc2c(-c3ccc(O[C@H]4CCC[C@H](C(=O)O)C4)c(C)n3)nnn2C)no1 [Example 131] are within 1.5-fold of each other in IC50: 0.026 µM for the first, 0.019 µM for the second.

Going from Cc1nc(-c2nnn(C)c2COc2cc(-c3ccccn3)on2)ccc1O[C@H]1CCC[C@H](C(=O)O)C1 [Example 133] to Cc1nc(-c2nnn(C)c2COc2noc(C3CC3)n2)ccc1O[C@H]1CCC[C@H](C(=O)O)C1 [Example 134], the IC50 falls from 0.208 µM to 0.025 µM (8.3-fold). The second is the more potent here.

Cc1nc(-c2nnn(C)c2COc2nnn(CC(C)C)n2)ccc1O[C@H]1CCC[C@H](C(=O)O)C1 [Example 136, (1S,3S)-3-((6-(5-(((2-Isobutyl-2H-tetrazol-5-yl)oxy)methyl)-1-methyl-1H-1,2,3-triazol-4-yl)-2-methylpyridin-3-yl)oxy)cyclohexane-1-carboxylic acid] and Cc1nc(-c2nnn(C)c2COc2nnn(CC3CC3)n2)ccc1O[C@H]1CCC[C@H](C(=O)O)C1 [Example 143] are within 1.5-fold of each other in IC50: 0.02 µM for the first, 0.024 µM for the second.

First: CC(C)c1nc(NCc2c(-c3ccc(O[C@H]4CCC[C@H](C(=O)O)C4)cn3)nnn2C)ns1 [Example 137]
Second: Cc1nc(-c2nnn(C)c2CNc2ncc(C(C)C)o2)ccc1O[C@H]1CCC[C@H](C(=O)O)C1 [Example 139]
The IC50 of the first is 8.4-fold higher: 0.32 µM for the first, 0.038 µM for the second.

First: CCCc1cnc(NCc2c(-c3ccc(O[C@H]4CCC[C@H](C(=O)O)C4)c(C)n3)nnn2C)o1 [Example 138]
Second: Cc1nc(-c2nnn(C)c2CNc2nc(CCC(C)C)no2)ccc1O[C@H]1CCC[C@H](C(=O)O)C1 [Example 158]
The IC50 of the first is 1.7-fold higher: 0.036 µM for the first, 0.021 µM for the second.

Compared with Cc1nc(-c2nnn(C)c2COc2ncn(CC3CC3)n2)ccc1O[C@H]1CCC[C@H](C(=O)O)C1 [Example 140], Cc1nc(-c2nnn(C)c2CNc2ncn(CC3CC3)n2)ccc1O[C@H]1CCC[C@H](C(=O)O)C1 [Example 152] is 3.1-fold higher in IC50: 0.057 µM for the first, 0.179 µM for the second.

CCCCn1cnc(OCc2c(-c3ccc(O[C@H]4CCC[C@H](C(=O)O)C4)c(C)n3)nnn2C)n1 [Example 141] and CCCCn1cnc(NCc2c(-c3ccc(O[C@H]4CCC[C@H](C(=O)O)C4)c(C)n3)nnn2C)n1 [Example 150] are within 1.5-fold of each other in IC50: 0.071 µM for the first, 0.0682 µM for the second.

Compared with CCC(C)n1cnc(OCc2c(-c3ccc(O[C@H]4CCC[C@H](C(=O)O)C4)c(C)n3)nnn2C)n1 (stereo partly shown) [Example 142], CCC(C)n1cnc(NCc2c(-c3ccc(O[C@H]4CCC[C@H](C(=O)O)C4)c(C)n3)nnn2C)n1 (stereo partly shown) [Example 149] is 2.3-fold lower in IC50: 0.509 µM for the first, 0.221 µM for the second. The second is the more potent here.

Cc1nc(-c2nnn(C)c2CNc2noc(COC(C)C)n2)ccc1O[C@H]1CCC[C@H](C(=O)O)C1 [Example 145] and CCOCc1nc(NCc2c(-c3ccc(O[C@H]4CCC[C@H](C(=O)O)C4)c(C)n3)nnn2C)no1 [Example 147] are within 1.5-fold of each other in IC50: 0.031 µM for the first, 0.045 µM for the second.

COCCCc1nc(NCc2c(-c3ccc(O[C@H]4CCC[C@H](C(=O)O)C4)c(C)n3)nnn2C)no1 [Example 146] and COCCc1nc(NCc2c(-c3ccc(O[C@H]4CCC[C@H](C(=O)O)C4)c(C)n3)nnn2C)no1 [Example 172] are within 1.5-fold of each other in IC50: 0.103 µM for the first, 0.12 µM for the second.

First: Cc1nc(-c2nnn(C)c2CNc2noc(C3(F)CCC3)n2)ccc1O[C@H]1CCC[C@H](C(=O)O)C1 [Example 148]
Second: Cc1nc(-c2nnn(C)c2CNc2noc(C3(C)CC3)n2)ccc1O[C@H]1CCC[C@H](C(=O)O)C1 [Example 154]
The IC50 of the first is 23-fold lower: 0.019 µM for the first, 0.441 µM for the second. The first is the more potent here.

First: Cc1nc(-c2nnn(C)c2CNc2noc(C3CCOC3)n2)ccc1O[C@H]1CCC[C@H](C(=O)O)C1 (stereo partly shown) [Example 151]
Second: Cc1nc(-c2nnn(C)c2CNc2noc(C3CC3)n2)ccc1O[C@H]1CCC[C@H](C(=O)O)C1 [Example 173]
The IC50 of the first is 2.3-fold lower: 0.114 µM for the first, 0.266 µM for the second. The first is the more potent here.

First: Cc1nc(-c2nnn(C)c2CNc2noc(C3CC(F)(F)C3)n2)ccc1O[C@H]1CCC[C@H](C(=O)O)C1 [Example 153]
Second: Cc1nc(-c2nnn(C)c2CNc2noc(CCC3CC3)n2)ccc1O[C@H]1CCC[C@H](C(=O)O)C1 [Example 165]
The IC50 of the first is 7.7-fold higher: 0.0461 µM for the first, 0.006 µM for the second. The second is the more potent here.

Cc1nc(-c2nnn(C)c2CNc2noc(C(C)(C)C)n2)ccc1O[C@H]1CCC[C@H](C(=O)O)C1 [Example 155] and Cc1nc(-c2nnn(C)c2CNc2cc(C(C)(C)C)on2)ccc1O[C@H]1CCC[C@H](C(=O)O)C1 [Example 169] are within 1.5-fold of each other in IC50: 0.085 µM for the first, 0.063 µM for the second.

Going from Cc1nc(-c2nnn(C)c2CNc2nc(CC3CCC3)no2)ccc1O[C@H]1CCC[C@H](C(=O)O)C1 [Example 156] to Cc1nc(-c2nnn(C)c2CNc2nc(CC(C)C)no2)ccc1O[C@H]1CCC[C@H](C(=O)O)C1 [Example 157], the IC50 rises from 0.029 µM to 0.053 µM (1.8-fold).

First: Cc1nc(-c2nnn(C)c2CNc2noc(CCC3CCC3)n2)ccc1O[C@H]1CCC[C@H](C(=O)O)C1 [Example 166]
Second: Cc1nc(-c2nnn(C)c2CNc2noc(CCC(C)F)n2)ccc1O[C@H]1CCC[C@H](C(=O)O)C1 (stereo partly shown) [Example 167]
The IC50 of the first is 3.2-fold lower: 0.005 µM for the first, 0.016 µM for the second. The first is the more potent here.

Going from Cc1nc(-c2nnn(C)c2CNc2cc(C(C)C)no2)ccc1O[C@H]1CCC[C@H](C(=O)O)C1 [Example 168] to CCC(C)Cc1nc(NCc2c(-c3ccc(O[C@H]4CCC[C@H](C(=O)O)C4)c(C)n3)nnn2C)no1 (stereo partly shown) [Example 170], the IC50 falls from 0.084 µM to 0.018 µM (4.7-fold). The second is the more potent here.

For CCCC(C)c1nc(NCc2c(-c3ccc(O[C@H]4CCC[C@H](C(=O)O)C4)c(C)n3)nnn2C)no1 (stereo partly shown) [Example 171], the IC50 was 0.012 µM.
